From BindingDB's records for patent US20230312583 (Shengke Pharmaceuticals (Jiangsu), 2023)

Target: Mast/stem cell growth factor receptor Kit (Homo sapiens, UniProt P10721)
Assay: Biological Assay
Method: Reactions were carried out in the presence of 10 μM ATP. […] The radioactive phosphorylated substrate remaining on the filter paper was measured.

Mast/stem cell growth factor receptor Kit, sequence (P10721 whole entry): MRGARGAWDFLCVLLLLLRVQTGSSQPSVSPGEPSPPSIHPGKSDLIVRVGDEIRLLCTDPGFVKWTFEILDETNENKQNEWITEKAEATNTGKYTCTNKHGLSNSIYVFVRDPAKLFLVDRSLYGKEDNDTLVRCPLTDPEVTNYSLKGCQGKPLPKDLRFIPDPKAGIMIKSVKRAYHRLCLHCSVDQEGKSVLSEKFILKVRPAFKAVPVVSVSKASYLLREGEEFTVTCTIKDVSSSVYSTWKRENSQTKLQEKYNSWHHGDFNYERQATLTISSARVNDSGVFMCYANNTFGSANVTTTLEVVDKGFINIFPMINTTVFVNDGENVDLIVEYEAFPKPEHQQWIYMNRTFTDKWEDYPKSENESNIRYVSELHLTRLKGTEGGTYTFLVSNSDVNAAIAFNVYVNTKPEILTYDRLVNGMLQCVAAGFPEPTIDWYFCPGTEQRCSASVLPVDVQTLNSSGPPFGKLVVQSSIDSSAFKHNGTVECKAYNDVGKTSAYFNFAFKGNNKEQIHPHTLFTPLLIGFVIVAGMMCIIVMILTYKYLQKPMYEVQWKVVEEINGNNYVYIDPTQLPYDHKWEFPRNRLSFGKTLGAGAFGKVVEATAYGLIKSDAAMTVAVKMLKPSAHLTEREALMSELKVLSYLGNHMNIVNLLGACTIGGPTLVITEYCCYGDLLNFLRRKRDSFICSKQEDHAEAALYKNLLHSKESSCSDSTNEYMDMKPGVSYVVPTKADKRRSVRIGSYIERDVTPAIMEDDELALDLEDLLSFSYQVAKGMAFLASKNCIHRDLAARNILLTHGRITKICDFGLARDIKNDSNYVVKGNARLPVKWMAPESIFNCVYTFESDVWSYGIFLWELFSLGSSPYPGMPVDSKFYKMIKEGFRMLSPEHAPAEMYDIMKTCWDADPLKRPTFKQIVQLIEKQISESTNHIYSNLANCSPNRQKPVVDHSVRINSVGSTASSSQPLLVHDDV

Structure (SMILES): CC#CCOc1cc(Nc2ncc3ccc4ncn(C(C)C)c4c3n2)ncc1N1CCNCC1 [US20230312583, Compound I-13]
- IC50: 93.2 nM
